Test results taken from US9108943B2, “Photoreactive benzamide probes for histone deacetylase 2” (THE BOARD OF TRUSTEES OF THE UNIVERSITY OF ILLINOIS, priority 2013, dated 2015).
Each block holds one compound with its values, some of them ahead of it.

Assays:
[1] = target: T1, purified recombinant human HDAC8 from E. coli (Homo sapiens, UniProt Q9BY41); experiment: Fluorogenic HDAC inhibition assay, HDAC8 (Fluor de Lys substrate); type: biochemical; conditions: 10 μM inhibitor, preincubation 3 h
T1 construct: made in house; host or cells: E. coli
T1 sequence (Q9BY41 1-377): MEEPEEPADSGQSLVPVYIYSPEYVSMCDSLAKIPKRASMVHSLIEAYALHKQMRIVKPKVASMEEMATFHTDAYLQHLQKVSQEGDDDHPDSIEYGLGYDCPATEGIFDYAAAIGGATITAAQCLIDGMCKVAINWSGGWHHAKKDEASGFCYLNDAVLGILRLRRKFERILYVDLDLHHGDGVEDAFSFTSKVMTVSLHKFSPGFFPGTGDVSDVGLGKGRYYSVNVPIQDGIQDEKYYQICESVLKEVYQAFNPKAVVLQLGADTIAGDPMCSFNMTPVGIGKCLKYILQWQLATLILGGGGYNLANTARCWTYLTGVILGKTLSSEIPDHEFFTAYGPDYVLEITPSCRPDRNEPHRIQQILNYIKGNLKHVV
Method: (§1) 10 μL of the enzyme stock was added to 30 μL of the probes and preincubated for different preincubation times.

[2] = target: T2, recombinant human HDAC2 (Homo sapiens, UniProt Q92769); experiment: Fluorogenic HDAC inhibition assay, HDAC2 (Boc-L-Lys(Ac)-AMC substrate); type: biochemical; conditions: for IC50: maximum preincubation time 24 h
T2 construct: purchased BPS Bioscience
T2 sequence (Q92769 whole entry): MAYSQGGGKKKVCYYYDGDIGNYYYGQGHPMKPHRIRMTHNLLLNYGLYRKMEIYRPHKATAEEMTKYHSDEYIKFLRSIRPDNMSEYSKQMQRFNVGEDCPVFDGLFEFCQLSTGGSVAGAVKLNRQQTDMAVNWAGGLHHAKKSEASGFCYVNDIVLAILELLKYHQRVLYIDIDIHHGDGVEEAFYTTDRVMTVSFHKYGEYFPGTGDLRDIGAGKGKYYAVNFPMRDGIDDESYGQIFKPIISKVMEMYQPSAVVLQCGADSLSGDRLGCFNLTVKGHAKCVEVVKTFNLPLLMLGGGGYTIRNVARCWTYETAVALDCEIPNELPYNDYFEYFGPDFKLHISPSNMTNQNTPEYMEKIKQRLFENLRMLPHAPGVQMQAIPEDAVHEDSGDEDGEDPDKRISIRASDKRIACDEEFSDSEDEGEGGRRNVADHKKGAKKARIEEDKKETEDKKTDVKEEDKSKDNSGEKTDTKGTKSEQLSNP
Method: as §1

[3] = target: recombinant His-tagged HDAC2 (Homo sapiens, UniProt Q92769); experiment: Photoaffinity labeling (photocrosslinking) of HDAC2 with TSA competition, biotin tag, streptavidin-HRP western blot; type: binding; conditions: probe 25 μM, HDAC2 1.25 μM, Trichostatin A 125 μM (5-fold molar excess), 24 h, 254 nm UV
Chain of recombinant His-tagged HDAC2 (Q92769 whole entry): as above
Method: Photoaffinity labeling studies were conducted with the probes using commercially available recombinant His-tagged HDAC2. […] The loading was confirmed by using nickel-HRP, which recognized the His-tag of the recombinant HDAC2 protein.
500 μM of DBCO-PEG4-biotin conjugate (Click Chemistry tools) in photolabeling buffer was added to initiate the [3+2] cycloaddition reaction with HDAC2-probe adduct. The cycloaddition reaction was carried out for 3 h at room temperature. Western blotting was done with 1.5 ug of purified protein with 5× loading buffer containing 10% SDS, 0.05% bromophenol blue, 50% glycerol, and β-mercaptoethanol. […] After electrophoresis, protein was transferred to a polyvinylidiene difluoride membrane (Iblot-Invitrogen). The membrane was incubated for 12 h with 5% albumin fraction V (Sigma-aldrich) in 1× Tris based saline supplemented with 0.1% Tween-20 (TBS-T). The membrane was washed three times with TBST and then incubated with Ni-HRP (1:2000) in TBST for 1 h under room temperature with slight agitation. After three washes in TBS-T, the chemilumiscent signal was detected using the enhanced chemiluminescence (ECL) kit from Pierce (Pierce Biotechnology, Rockford, Ill.). […] After three washes in PBST and water, the chemilumiscent signal was detected using the enhanced chemiluminescence (ECL) kit from Pierce (Pierce Biotechnology, Rockford, Ill.).

inhibition of HDAC8 [1]: inactive | inhibition of HDAC8 ([1]; 10 µM): did not inhibit
Compound: [N-]=[N+]=Nc1cccc(COC(=O)NCc2ccc(C(=O)Nc3cc(-c4ccccc4)ccc3N)cc2)c1 [probe 2a, 3-azidobenzyl 4-((4-amino-[1,1′-biphenyl]-3-yl)carbamoyl)benzylcarbamate]

IC50 [2]: 750 nM
Compound: [N-]=[N+]=NCCOc1ccc(C(=O)Nc2cc(-c3cccs3)ccc2N)cc1N=[N+]=[N-] [probe 1f, N-(2-amino-5-(thiophen-2-yl)phenyl)-3-azido-4-(2-azidoethoxy)benzamide]

decrease in biotinylation of HDAC2 in the presence of competing ligand [3]: slightly less pronounced
Compound: [N-]=[N+]=NCCC(=O)Nc1ccc(C(=O)Nc2cc(N=[N+]=[N-])ccc2N)cc1 [probe 1g, N-(2-amino-5-azidophenyl)-4-(3-azidopropanamido)benzamide]

IC50 [2]: 830 nM | increase in inhibition of HDAC2 upon preincubation (IC50 ratio) ([2]; preincubation 24 h vs 5 min): 41 fold
Compound: [N-]=[N+]=NCCOc1ccc(C(=O)Nc2cc(-c3ccccc3)ccc2N)cc1N=[N+]=[N-] [probe 1e, N-(4-amino-[1,1′-biphenyl]-3-yl)-3-azido-4-(2-azidoethoxy)benzamide]
